Molecules are shown by their SMILES. Residues, ends and D or L forms follow the SMILES beside them. *: point of attachment. Cbz = O=C(OCc1ccccc1)*

As for `COC(=O)COc1ccc(C(=O)CN(C)C(=O)OCc2ccccc2)cc1OCC(=O)OC`, the melting point lay in the range of 56 to 59 °C.
The molecule `CS(=O)(=O)NCCCNC(=O)c1cccc(-c2cccc3oc(Cc4cccc(C(F)(F)F)c4)cc23)c1` came in with a melting point of 79 to 80 °C.
The molecule `Cc1cc(OS(=O)(=O)C(F)(F)F)ccc1S(C)(=O)=O` yielded a melting point of 51 °C.
Molecule `CNC(=NCCSCc1cc(CN2CCCCC2)ccn1)NC#N` returned a melting point of 79 to 81 °C.
`CC(C)c1ccc(C2(CC(=O)O)CNC(=O)C2)cc1` (centres undefined) came in with a melting point of 175 to 178 °C.
As to `CN(CCCCCCO)c1ccc(N=Nc2ccc(S(C)(=O)=O)cc2)cc1`, the melting point was 114 to 116 °C.
`CCCn1nc(C(C)C)c(C(=O)OCc2ccccc2C(=O)c2ccccc2)c1Cc1ccc(-c2ccccc2S(=O)(=O)NC(C)(C)C)c(F)c1` returned a melting point of 49 to 51 °C.
As to `COc1ccc(C(=O)Nc2c(C)c(C)c3c(c2C)C(c2ccc(C(C)C)cc2)C(C)(C)O3)cc1` (centres undefined), the melting point was in the range of 202 to 205 °C.
`Cc1nn(-c2c(Cl)cc(C(F)(F)F)cc2Cl)nc1Br`: the melting point was found to be 82 °C.
To `CN1CC(=O)NC1=NC(=O)Nc1cccc([N+](=O)[O-])c1` belongs 182 to 188 °C; to `CCn1cc(-c2ccncn2)cc(Br)c1=O`, 195 to 197 °C.
Turning to `Oc1ccc(C2(c3ccccc3)OCCCC2c2ccccc2)cc1` (centres undefined), the melting point fell in the range of 194 to 196 °C.
As for `CC(=O)N=C(CCSCc1csc(NC(=N)N)n1)NC(C)=O`, the melting point was in the range of 180 to 181 °C.
As to `CC(=O)C(C(N)=O)=C(C)[N+](=O)[O-]`, the melting point was in the range of 159 to 161 °C.
In turn, `CCCOc1ccc(F)c2c(=O)c(-c3ccc(OC)cc3)c(CN3CCN(c4ccccn4)CC3)[nH]c12` yielded a melting point of 211 to 212 °C.
To `CCOC(=O)COc1ccc2cc(Br)ccc2c1Cl` belongs 92 to 94 °C.
`CCOC(=O)C(=O)c1cn(CCNC(=O)OC(C)(C)C)c2ccccc12`: the melting point fell in the range of 114 to 115 °C.
The value for `CN(CCF)C1CN(c2ccc(N3C[C@H](CN=[N+]=[N-])OC3=O)cc2F)C1` was 60 to 63 °C.
As to `BrC(Br)Cc1ccc(OCc2ccccc2)cc1`, the melting point fell in the range of 97 to 98 °C.
In turn, `Cc1cccc2[nH]c(C(=O)NCCc3ccc(CCCC(=O)O)cc3)cc12` gave a melting point of 132 to 134 °C.
As for `CCOC(=O)C(=O)c1csc(NC(=O)Nc2ccc(Cl)cc2)n1`, the melting point lay in the range of 230 to 234 °C.
The value for `C=C(F)Cc1ccc(OC)cc1OCc1ccccc1` was 77 to 78 °C.
`CCCCCCCCCCC(=O)C(=O)N[C@@H](CCCC)CCC(=O)O` had a melting point of 50 to 52 °C.
To `COC(=O)COc1c(Br)cc(-c2c3ccccc3c(Br)c3sc4ccccc4c23)cc1Br` belongs 183 to 184 °C; to `Cn1c(C(F)(F)F)cc(=O)n(-c2cc(OCc3ccc(F)cc3)c(Cl)cc2F)c1=O`, 174 to 177 °C.
`C[C@@H]1OC(=O)[C@H]2C[C@H]3CCCC[C@@H]3[C@@H](O)[C@@H]12` registered a melting point of 195 to 196 °C.
Turning to `COc1ccc(CN2Cc3cc(N(C)C)ccc3N3CC(=O)N=C23)cc1`, the melting point lay in the range of 196 to 200 °C.
`COc1ccccc1OCCCc1oc(-n2ccnc2C)nc1-c1ccc(Cl)cc1` displayed a melting point of 84 to 85 °C.
`CN1CCCC1CCN1CCN(CCC2CCCN2C)C1=C(C#N)C#N` (centres undefined): the melting point lay in the range of 121 to 123 °C.
For the molecule `O=C(CCc1ccccc1)N[C@H](Cc1ccc(C(F)(F)F)cc1)[C@@H](O)c1ccc(F)cc1F` (racemic), the melting point was 126 to 127 °C.
Take `C[C@]1(CN2CCC(c3ccccc3)CC2)Cn2cc([N+](=O)[O-])nc2O1`: the melting point was 159 to 164 °C.
The value for `COC(=O)c1c2ccccc2nc2cc(Cl)ccc12` was 148 °C; that for `CCCOc1cc(Oc2ccc(C(F)(F)F)cn2)ccc1CCCOc1c(CC(=O)O)cccc1OC` was 78 to 79 °C.
`CCc1nc(C(=O)c2ccc(Cl)cc2Cl)c(C=O)n1C(CC)CC` registered a melting point of 85 to 86 °C.
`Cc1noc2nc(-c3ccccc3)cc(Cl)c12` showed a melting point of 130 to 131 °C.
`CN1C(=O)CN(N=Cc2ccccc2)C1=O` registered a melting point of 253 to 255 °C.
`COc1cc(OC)c(-c2nc(N3CC(C)NC(C)C3)c3c(C)c(C#N)sc3n2)cc1OC` (centres undefined) came in with a melting point of 186 to 188 °C.
The molecule `CCCc1c(S(=O)(=O)CCCOc2ccc(C(C)=O)c(OCCCC(=O)OCC)c2CCC)ccc(C(C)=O)c1O` returned a melting point of 77 to 79 °C.
The value for `CC(C)C1(Br)Cc2cc(OCC(=O)O)c(Cl)c(Cl)c2C1=O` (centres undefined) was 150 to 153 °C; that for `COCCOCCOc1ccc(C=O)cc1` was 44 to 47 °C; that for `COc1ccccc1C(C)(O)c1ocnc1C` (centres undefined) was 74 to 75 °C.
On to `COc1cc(C(CCC(C(=O)O)c2cc(OC)c(OC)c(OC)c2)C(=O)O)cc(OC)c1OC` (centres undefined), for which the melting point fell in the range of 226 to 233 °C.
Consider `CCCCc1cccc(-c2nc(C(C)C)n(C)n2)n1`, for which the melting point was 58.1 °C.
As to `O=Cc1cc(Br)ccc1OCCc1ccccc1`, the melting point was in the range of 79 to 80 °C.
In turn, `Cc1ccc(C(=O)Nc2ccc(CN3CCOCC3)c(C(F)(F)F)c2)cc1Br` displayed a melting point of 147 to 151 °C.
In turn, `N#CC1=Cc2cc(Cl)ccc2OC1` returned a melting point of 124 to 126 °C.
As for `CC(=O)NC(C(=O)Nc1ccc(C(=O)OCc2ccccc2)cc1)c1ccc2c(c1)C(C)(C)CCC2(C)C` (centres undefined), the melting point was 258 to 259 °C.
`COC(=O)CNc1ccc(F)c(F)c1` came in with a melting point of 71 to 73 °C.
On to `CCN(CC)CC(=O)Nc1cccc(-c2cc(-c3ccc(F)cc3OCOC)nc(NC(=O)c3ccco3)c2C#N)c1`, for which the melting point was in the range of 126 to 128 °C.
To `CCc1ccc(C(=O)c2c(N)sc3c2CCN(C(=O)OCc2ccccc2)C3)cc1` belongs 121 to 123 °C; to `CSc1nc(-c2ccncc2)n(-c2ccc(F)cc2)c(=O)c1C#N`, 301 to 303 °C; to `COc1ccc(C2(O)C(=O)N(Cc3ccc(Cl)cc3)c3ccccc32)cn1` (centres undefined), 182 to 184 °C.
The value for `CCC(C)(C)Nc1c(NCc2cccc(C)c2C)c(=O)c1=O` was 196 to 198 °C; that for `Cc1nc(N2CCN(C(=O)c3ccco3)CC2)nnc1-c1ccccc1` was 142 °C.
In turn, `CCCC(=O)c1ccc(OCC(=O)OC)cc1` gave a melting point of 78 to 82 °C.
`Cn1c(=O)c(-c2ccc(Cl)cc2Cl)cc2c3cc(-c4cocn4)ccc3n(C)c21` showed a melting point of 221 to 222 °C.
`CC(=Nc1ccc2c(c1)C(=O)c1ccc(N=C(C)N3CCC(C)CC3)cc1C2=O)N1CCC(C)CC1` yielded a melting point of 200 to 202 °C.
The molecule `CCCc1c(OCCCCC(=O)c2ccc3cc(O)c(O)cc3c2)ccc(C(=O)O)c1O` returned a melting point of 213 to 214 °C.
Consider `O=C(Oc1ccc2cc(CN3CCCC3)ccc2c1)N1CCC(c2ccc(F)cc2)CC1`, for which the melting point is 106 to 108 °C.
Turning to `COc1cc(OC)c2c(=O)[nH]c(-c3ccc(OC)c(N4CCN(C(C)C)CC4)n3)nc2c1`, the melting point fell in the range of 208 to 210 °C.
`Cc1cccc(-c2cncc(OC3SCC(O)C(O)C3O)c2)n1` (centres undefined) displayed a melting point of 188 °C.
The value for `CC(C)(C)c1cc(=S)cc(C(C)(C)C)o1` was 108 °C; that for `Oc1nc2ccc3sccc3c2nc1O` was 187 °C.
`O=C(NC(=O)c1c(F)cccc1F)Nc1cc(Br)c(F)c(Cl)c1F` came in with a melting point of 225 to 227 °C.
In turn, `CSc1c[nH]nc1C1CN2CCC1CC2` (centres undefined) registered a melting point of 145 to 147 °C.
As for `CC[Si](C)(C)CCCCCCCCC1=C(O)C(=O)c2ccccc2C1=O`, the melting point was in the range of 39 to 41 °C.
In turn, `CC(C)c1cccc(C(C)C)c1NC(=O)CCl` came in with a melting point of 146 to 148 °C.
As for `Cc1ccc([C@@H](C)NCc2ccc(O)cc2)cc1`, the melting point was 114 to 116 °C.
As to `COC(=O)c1cccc2[nH]c3ccccc3c12`, the melting point is 84.3 °C.
The value for `Cc1cccc(N2CCN(C(=O)CCCCCCC(=O)NO)CC2C)c1` (centres undefined) was 75 to 76 °C.
In the case of `COc1ccc(-n2ncc(C(=O)Nc3ccc(N4CCC(N5CCOCC5)CC4)c(C#N)c3)c2C)cc1`, the melting point was found to be 238 °C.
Turning to `CCn1nnc(C(C=CC=O)=C(c2ccc(F)cc2)c2ccc(F)cc2)n1`, the melting point lay in the range of 117 to 120 °C.
`COC(=O)c1ccc([C@H]2CC[C@H](C3OCCO3)CC2)cc1` came in with a melting point of 110 to 111 °C.
`CN(Cc1ccccc1)c1nc(N2CCC(NCC(c3ccccc3)c3ccccc3)CC2)nc2c(N3CCOCC3)ncnc12`: the melting point fell in the range of 106 to 108 °C.
On to `CC(C)(C)c1nc(O)cc(OC(F)F)n1`, for which the melting point amounted to 156 °C.
The molecule `CC(c1ccccc1)N1CCC(CO)C1` (centres undefined) showed a melting point of 86 to 88 °C.
On to `O=C(O)CCc1cc(Br)c(OC(=O)c2c3ccccc3nc3ccccc23)c(Br)c1`, for which the melting point fell in the range of 240 to 242 °C.
Turning to `O=c1[nH][nH]c(C(F)(F)F)c1Cc1ccc2ccccc2c1`, the melting point was 165 to 167 °C.
For the molecule `CCCCCCOC(=O)OC(C)OC1=C(C(=O)Nc2ccccn2)N(C)S(=O)(=O)c2ccccc21` (centres undefined), the melting point is 86 to 87 °C.
In turn, `COC(=O)c1cccc(Oc2cccc(Br)n2)c1` returned a melting point of 68 to 69 °C.
Molecule `COC(=O)[C@H](Cc1ccccc1)NC(=O)[C@H](CC(=O)O)NC(=O)OCc1ccccc1` (Cbz-Asp-Phe-OMe) showed a melting point of 113 to 116 °C.
As for `O=C(NCCO)c1cc2c(Oc3ccc(Cl)cc3)cnc(Cl)c2s1`, the melting point lay in the range of 129 to 132 °C.
`O=C(O)CCc1c(C=C2C(=O)Nc3ccc(Cl)cc32)[nH]c2c1CCCC2` returned a melting point of 370 to 384 °C.
Turning to `CCOc1cccnc1CSCCN=C(NC)NC#N`, the melting point was 126 to 128 °C.
On to `COc1cc([N+](=O)[O-])ccc1CBr`, for which the melting point lay in the range of 94 to 96 °C.
`CC(=O)c1cnn(-c2ccnc3cc(Cl)ccc23)c1` yielded a melting point of 190 to 192 °C.
In turn, `O=C(O)C(=O)c1ccc(OCc2ccccc2)c(Cl)c1` had a melting point of 134 to 135 °C.
The molecule `CCOC(=O)C1=C(C)NC(CC)=C(C(=O)OCC)C1c1cc([N+](=O)[O-])ccc1OCCCCCl` (centres undefined) showed a melting point of 147 to 149 °C.
The value for `CC(=O)CN1CCN(C(=O)Cn2c(=O)sc3ncc(Cl)cc32)CC1` was 191 to 193 °C.
